What was measured:
PKCη = biological target: T1, PKCη (Homo sapiens, UniProt P24723); assay: In vitro kinase assay of PKCη with Myelin Basic Protein as substrate; type: biochemical; settings: p-MBP, γ-32P radioactive kinase assay; compared to control peptide uPEP9-26 and ηPS; peptides 2 or 10 μM
T1 construct: HA; expressed in transfected cells
Description: (§1) FIG. 2A is a schematic view of the peptides derived from PKCη and used in the examples described herein. uPEP1-26 refers to the complete peptide encoded by uORF2; uPEP9-26 and uPEP18-26 refer to control peptides, which lack the PS motif; ηPS refer to a peptide containing the internal PS domain of PKCη. […] The kinase activity of PKCη was measured using Myelin Basic Protein (p-MBP) as a substrate and γ-^32P radioactive kinase assays. All values were normalized to the control sample without a peptide (Cont.). The data shown are the means of three separate experiments, and is also presented as the gel in FIG. 2C. FIG. 2D: Kinase assays were conducted as described in FIG. 2B, using uPEP1-26 at 2 μM concentration are depicted. All values were normalized to the control sample (without peptide). The data shown are the means of three separate experiments.
(§2) Immunoprecipitations were performed by using pre-absorbed mAbs on protein A/G-agarose beads for 1 h at room temperature. Excess Abs was removed by 3 washes in cold phosphate buffered saline (PBS) and Ab-coated beads were incubated with cell lysates overnight at 4° C. Immune complexes were precipitated by centrifugation followed by extensive washing with RIPA buffer without SDS (10 mM Tris-HCl pH 8.0, 100 mM NaCl, 5 mM EGTA, 1% NP-40, 45 mM β-mercaptoethanol, and 50 mM NaF). […] Kinase activity was evaluated with exposing reagents. […]

[1] = tested on: PKCs from the novel PKC subfamily; assay: In vitro kinase assay on PKC subfamilies; type: biochemical; settings: peptide at 2 μM; normalized to control without peptide
Description: as §1, §2

MCF7 (breast cancer) = assay: Scratch (wound healing) assay, MCF7; type: cell-based
Description: (§3) FIG. 3A is a photograph taken from the scratch assay performed on MDA-MB-231 cells. Cells were seeded in 24-well plate and incubated for 4 hours with the indicated peptides in a free-serum media. After 4 hours, a scratch was made with a 200 μl pipette tip. Photographs of a selected area of each scratch were taken at indicated time points. Areas were measured by ImageJ software. FIGS. 3B-3D are graphs representing the analysis of the scratch assay performed as described in […] on cell lines MDA-MB-231, MCF-7 and MCF10A, respectively. All values were normalized to time 0 of each well and presented in percentage.
(§4) MCF-7 and MDA-MB-231 cells were seeded in 24-well plates and grown to full confluency. Subsequently, media with low serum (2% to MCF-7 and 0.1% to MDA-MB-231) containing the peptides were added to the wells for 4 h. Then, a scratch was placed in the middle of the well with a sterile 200 μl pipette tip (Eppendorf). After washing once with PBS, the respective treatments were returned. Wells were photographed at total magnification of 4× with an IX70 Olympus Optical light microscope (Tokyo, Japan). 3 Images for each well were taken every 24 h.
(§5) The in vitro effect of PKCeta uORF2 on cancer cell migration was tested […] by a standard scratch test assay, as described above. […]

[2] = tested on: MDA-MB-231 (breast cancer); assay: Scratch (wound healing) assay, MDA-MB-231; type: cell-based; settings: MDA-MB-231, scratch assay
Description: as §3, §4, §5

MCF7 = assay: PrestoBlue cell viability/proliferation assay, MCF7; type: cell-based; settings: compared with uPEP9-26, uPEP18-26 and ηPS
Description: (§6) FIGS. 4A-4D show the ability of the peptide encoded by uORF2 (uPEP21-26) to reduce viability of breast cancer and glioblastoma cells. FIG. 4A: MCF-7 cells were seeded onto 48-well plates. 24 hours later, the cells were incubated for 24 hours with the indicated peptides). Following incubation, the medium with tested peptide was gently aspirated from each well and 25 μL of PrestoBlue reagent was added to each well of the 48-well plate and incubated at 37° C. in 5% CO2 for 15 min, as recommended. The absorbance was detected by ‘Infinite M200 PRO’ reader. FIGS. 4B-4D are the results of experiments identical to that described by FIG. 4A, but performed on cells lines U251 MG (glioblastoma cell line), MDA-MB-231 and MCF10A, respectively.
(§7) MCF-7 and MDA-MB-231 cells were seeded at 2×10^4 cells/well in 48-well plates. After 24 h serum free-media containing the peptides was added to the wells for 4 h. Then, medium with serum was added and the plate was incubated for 24 h at incubator (5% CO2 humidified atmosphere at 37° C.). Following incubation, the medium with tested peptide was gently aspirated from each well and 25 μL of PrestoBlue™ reagent (Thermo #A13261) was added to each well of the 48-well plate and incubated at 37° C. in 5% CO2 for 15 min, as recommended. The absorbance was recorded at 570 nm and detected by ‘Infinite M200 PRO’ reader. […]

MDA-MB-231 [3] = assay: PrestoBlue cell viability/proliferation assay, MDA-MB-231; type: cell-based; settings: compared with uPEP9-26, uPEP18-26 and ηPS
Description: as §6, §7

[4] = tested on: U251 MG (glioblastoma cell line); assay: PrestoBlue cell viability/proliferation assay, U251 MG; type: cell-based; settings: compared with uPEP9-26, uPEP18-26 and ηPS
Description: as §6, §7

MCF-7 = assay: XTT cell viability assay, MCF-7; type: cell-based; settings: 5 μM and 10 μM, compared to the other peptides
Description: (§8) FIGS. 6A-6C show the efficacy of uORF2-encoded peptide mutated at position 10 (uPEP1-26[c/a]) in reducing cell viability on various cell lines. FIG. 6A: MCF-7 cells were seeded in 96 well plate and incubated for 24 hours with the indicated peptides. After 24 hours, the proliferation rate was monitored using XTT kit (Biological Industries, Israel) according to the manufacturer's instructions.
(§9) Cells were seeded on 96-wells plate at a cell density of 20,000 cells/well and were grown for 48 hours. Cells were treated as indicated for 48 hours. A XTT (#20-300-1000, Biological Industries) reaction solution was prepared (containing the XTT and activation solutions) and added (50 μl/well) into cell medium for 2-4 hours at 37° C. The plate was immediately read in an ELISA plate reader at 450-500 nm. Background reading was performed at 630 nm, and the results calculated as the differences between the values.
(§10) A uPEP21-26[10C/A] mutation of the PKCeta uORF2 peptide (SEQ ID NO: 1) was synthesized containing an alanine substitution at Cys-10, herein referred to as SEQ ID No 5. Cell lines MCF-7 (FIG. 6A), MDA-MB-231 (FIG. 6B) and HeLa (FIG. 6C) were treated with uPEP218-26, uPEP21-26, uPEP21-26[10C/A], uPEP21-17 and ηPS at doses of 5 μM and 10 μM in order to determine cell proliferation.

MDA-MB-231 [5] = assay: XTT cell viability assay, MDA-MB-231; type: cell-based; settings: 5 μM and 10 μM, compared to the other peptides
Description: as §8, §9, §10

HeLa = assay: XTT cell viability assay, HeLa; type: cell-based; settings: 5 μM and 10 μM, compared to the other peptides
Description: as §8, §9, §10

4T1 cells = assay: Breast 4T1 mouse model with PKCη knockdown cells; type: in vivo; settings: 4T1 cells expressing shRNA vs scrambled control, female BALB/c mice
Description: FIG. 7A: 4T1 cells expressing shPKCη (SEQ ID NO: 33) or scrambled control were injected into mammary fat pad of 8-week-old female BALB/c mice. Tumor diameters were measured every week with vernier calipers. FIG. 7B: The mice were sacrificed after 8 weeks, and number of metastasis formed in the lungs was counted using Bouin's solutions. Error bars represent the mean±s.e.m, statistical analysis indicates for statistical significance in two-tailed, unpaired sample t-test.
Mice were anesthetized with a solution of 10 ml/mg Ketamine and 1.17 ml/mg xylazine, in saline. Anesthesia was injected intraperitoneally (IP) after sterilizing the inoculation area of the mice with 70% ethanol solution. Using a 27-gauge needle, 4T1 control and shPKCη knockdown cells (transfected with SEQ ID NOs 33-35 or scrambled control (obtained from the ATCC) were injected a few millimeters from the nipple, underneath the skin (120,000 cells in 50 μl per mouse).
Each week, mice were tested for tumors and the primary tumors were examined by caliper. After 10 weeks, mice were euthanized and examined for metastases in lung, liver and spleen, and samples were prepared for immuno staining.
To test the in vivo effects of PKCeta on tumor formation, the establishment and growth of breast cancer cells with (4T1 control cells) and without PKCeta (PKCeta knockdown 4T1 cells) was compared.

T1 sequence (P24723 whole entry): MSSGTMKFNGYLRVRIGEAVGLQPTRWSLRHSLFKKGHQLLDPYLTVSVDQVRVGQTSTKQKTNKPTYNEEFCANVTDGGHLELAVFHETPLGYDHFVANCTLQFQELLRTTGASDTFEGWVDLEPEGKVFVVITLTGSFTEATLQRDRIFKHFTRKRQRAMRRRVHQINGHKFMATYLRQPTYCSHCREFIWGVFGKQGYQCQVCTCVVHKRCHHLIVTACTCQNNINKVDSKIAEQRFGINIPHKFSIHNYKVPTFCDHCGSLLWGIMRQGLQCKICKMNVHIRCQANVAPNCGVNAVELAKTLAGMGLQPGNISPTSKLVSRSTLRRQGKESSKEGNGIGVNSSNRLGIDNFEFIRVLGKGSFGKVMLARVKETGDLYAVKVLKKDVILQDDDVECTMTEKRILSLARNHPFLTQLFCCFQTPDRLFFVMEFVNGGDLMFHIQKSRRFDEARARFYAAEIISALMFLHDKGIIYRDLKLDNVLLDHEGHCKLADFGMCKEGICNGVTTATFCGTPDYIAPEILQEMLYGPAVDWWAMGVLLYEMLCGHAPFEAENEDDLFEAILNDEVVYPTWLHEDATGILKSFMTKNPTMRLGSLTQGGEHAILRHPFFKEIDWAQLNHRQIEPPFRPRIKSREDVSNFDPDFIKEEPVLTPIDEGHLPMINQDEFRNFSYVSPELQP

uPEP1-26: full-length human PKCeta uORF2 peptide, 26 amino acids; MASRGALRRXLSPGLPRLLHLSRGLA wherein X is C (MASRGALRRCLSPGLPRLLHLSRGLA; listed as Homo sapiens)
inhibition of kinase activity of PKCη (PKCη): strongest inhibitor
inhibition of kinase activity of PKCs from the novel PKC subfamily [1]: strongly inhibits
inhibition of cell migration (MCF7 (breast cancer)): inhibited migration
inhibition of cell migration [2]: inhibited migration
inhibition of cell proliferation (MCF7): inhibited cell proliferation the most
inhibition of cell proliferation (MDA-MB-231 [3]): inhibited cell proliferation the most
inhibition of cell proliferation [4]: inhibited cell proliferation the most

uPEP1-26[10C/A]: full-length PKCeta derived uORF peptide with alanine substitution at Cys-10; MASRGALRRXLSPGLPRLLHLSRGLA wherein X is A (MASRGALRRALSPGLPRLLHLSRGLA)
reduction of cell viability (MCF-7): efficiently reduced cell viability
reduction of cell viability (MDA-MB-231 [5]): efficiently reduced cell viability
reduction of cell viability (HeLa): efficiently reduced cell viability

B1: SEQ ID NO: 33: shRNA sequence for targeting PKCη expression (nucleic acid)
chain: GATCCCCGGCCCGTCTTAACTCCGATTGATCTCGATCAATCGGAGTTAAGACGGGTTTTTG
formation of tumor metastases (lungs) (4T1 cells): inhibited the formation of tumor metastases
tumor volume over time (4T1 cells; mammary fat pad): significant inhibition in tumor size

— US11753453B2, “Peptide kinase inhibitors and methods of use thereof” (B.G. NEGEV TECHNOLOGIES AND APPLICATIONS LTD., priority 2017, dated 2023)
